This passage reports IC50 results from ChEMBL document CHEMBL1135946, “Design, synthesis and biological activity of novel non-amidine factor Xa inhibitors. Part 1: P(1) structure-activity relationships of the substituted 1-(2-Naphthyl)-1H-pyrazole-5-carboxylamides” (Bioorg Med Chem Lett, 2002).

The structures appear in SMILES notation. Bounds are passed on as bounds.

Sequence of Serine protease 1 (P07477 whole entry): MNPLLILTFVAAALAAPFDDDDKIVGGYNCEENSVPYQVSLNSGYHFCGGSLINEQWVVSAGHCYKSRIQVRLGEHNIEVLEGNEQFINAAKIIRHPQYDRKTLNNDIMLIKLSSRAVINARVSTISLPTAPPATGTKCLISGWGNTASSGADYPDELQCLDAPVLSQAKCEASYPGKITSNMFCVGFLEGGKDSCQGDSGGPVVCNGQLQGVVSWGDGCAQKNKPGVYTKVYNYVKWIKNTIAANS
Sequence of Vitamin K-dependent protein C (P04070 43-197 limits assumed): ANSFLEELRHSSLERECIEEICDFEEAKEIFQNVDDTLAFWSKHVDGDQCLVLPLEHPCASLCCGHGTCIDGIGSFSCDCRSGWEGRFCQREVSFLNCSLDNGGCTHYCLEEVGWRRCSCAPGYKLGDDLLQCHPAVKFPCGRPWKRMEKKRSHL
Sequence of Vitamin K-dependent protein C (P04070 212-461 limits assumed): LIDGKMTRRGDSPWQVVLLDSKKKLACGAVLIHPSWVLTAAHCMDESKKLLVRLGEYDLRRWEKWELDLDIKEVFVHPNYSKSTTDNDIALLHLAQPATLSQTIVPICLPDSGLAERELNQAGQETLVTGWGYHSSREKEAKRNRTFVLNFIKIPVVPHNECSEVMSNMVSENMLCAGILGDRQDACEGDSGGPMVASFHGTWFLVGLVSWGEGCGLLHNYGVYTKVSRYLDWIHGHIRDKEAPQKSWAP
Sequence of Plasminogen (P00747 97-580 limits assumed): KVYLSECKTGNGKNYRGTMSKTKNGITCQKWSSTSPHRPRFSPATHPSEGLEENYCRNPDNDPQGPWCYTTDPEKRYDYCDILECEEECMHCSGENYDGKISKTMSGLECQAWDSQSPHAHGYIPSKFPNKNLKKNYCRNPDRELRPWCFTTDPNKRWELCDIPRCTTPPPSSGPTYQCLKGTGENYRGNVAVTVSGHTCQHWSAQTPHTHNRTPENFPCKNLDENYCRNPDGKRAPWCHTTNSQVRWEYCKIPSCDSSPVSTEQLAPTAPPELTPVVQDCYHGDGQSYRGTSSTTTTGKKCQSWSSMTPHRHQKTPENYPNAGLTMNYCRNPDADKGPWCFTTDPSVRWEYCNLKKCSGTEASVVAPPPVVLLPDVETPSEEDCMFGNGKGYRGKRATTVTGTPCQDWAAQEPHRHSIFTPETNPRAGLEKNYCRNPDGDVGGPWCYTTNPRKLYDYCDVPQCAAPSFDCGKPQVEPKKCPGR
Sequence of Plasminogen (P00747 581-810 limits assumed): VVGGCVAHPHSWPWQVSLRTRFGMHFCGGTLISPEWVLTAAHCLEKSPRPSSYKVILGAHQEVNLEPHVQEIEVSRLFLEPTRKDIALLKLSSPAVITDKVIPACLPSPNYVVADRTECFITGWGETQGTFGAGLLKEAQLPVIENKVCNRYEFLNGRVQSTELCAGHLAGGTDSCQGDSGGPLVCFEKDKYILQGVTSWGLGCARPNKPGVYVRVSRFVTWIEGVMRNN
Sequence of Coagulation factor X (P00742 41-179 limits assumed): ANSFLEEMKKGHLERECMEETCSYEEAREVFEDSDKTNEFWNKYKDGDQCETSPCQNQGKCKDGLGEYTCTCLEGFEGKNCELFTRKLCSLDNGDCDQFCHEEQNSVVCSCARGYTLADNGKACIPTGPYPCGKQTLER
Sequence of Coagulation factor X (P00742 235-488 limits assumed): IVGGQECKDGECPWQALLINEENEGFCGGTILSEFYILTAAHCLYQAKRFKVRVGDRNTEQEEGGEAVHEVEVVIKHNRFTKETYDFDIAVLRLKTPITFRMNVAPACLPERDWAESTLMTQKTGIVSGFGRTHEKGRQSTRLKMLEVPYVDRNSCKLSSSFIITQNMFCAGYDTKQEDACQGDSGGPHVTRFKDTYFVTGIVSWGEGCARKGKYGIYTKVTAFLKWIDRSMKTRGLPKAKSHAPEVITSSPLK

One experiment has as its target Vitamin K-dependent protein C (Homo sapiens, UniProt P04070). Nature of the experiment: Inhibitory activity against activated protein C.
A word on the IC50: it is the concentration at which inhibition is half-maximal. Regarding `Cc1cc(C(=O)Nc2ccc(-c3ccccc3S(N)(=O)=O)cc2)n(-c2cc3ccccc3cc2C(=O)O)n1`, the IC50 was greater than 11 µM.
Same read-out and setting: with `Cc1cc(C(=O)Nc2ccc(-c3ccccc3S(N)(=O)=O)cc2)n(-c2cc3ccccc3cc2O)n1` the figure was greater than 11 µM; with `COc1ccc2cc(-n3nc(C)cc3C(=O)Nc3ccc(-c4ccccc4S(N)(=O)=O)cc3)ccc2c1`, greater than 11 µM.
The molecule `Cc1cc(C(=O)Nc2ccc(-c3ccccc3S(N)(=O)=O)cc2)n(-c2ccc3cc(O)ccc3c2)n1` registered an IC50 greater than 11 µM.
On the same count and under the same terms, with `Cc1cc(C(=O)Nc2ccc(-c3ccccc3S(N)(=O)=O)cc2)n(-c2cc3ccccc3cc2C(=N)N)n1` the figure was greater than 11 µM.
As to `Cc1cc(C(=O)Nc2ccc(-c3ccccc3S(N)(=O)=O)cc2)n(-c2cc3ccccc3cc2S(C)(=O)=O)n1`, the IC50 was greater than 11 µM.
Still for that read-out and setting: with `Cc1cc(C(=O)Nc2ccc(-c3ccccc3S(N)(=O)=O)cc2)n(-c2cc3ccccc3cc2C(N)=O)n1` the figure was greater than 11 µM.
In the case of `Cc1cc(C(=O)Nc2ccc(-c3ccccc3S(N)(=O)=O)cc2)n(-c2cc3ccccc3cc2Br)n1`, the IC50 was greater than 11 µM.

The next experiment addresses Coagulation factor X (Homo sapiens, UniProt P00742). Nature of the experiment: Inhibitory activity against coagulation factor Xa.
With `NS(=O)(=O)c1ccccc1-c1ccc(NC(=O)c2cc(C(F)(F)F)nn2-c2ccc3cc(Cl)ccc3c2)cc1`, it took 0.004 µM to reach half-maximal inhibition (IC50).
Same read-out and setting: the value for `Cc1cc(C(=O)Nc2ccc(-c3ccccc3S(N)(=O)=O)cc2)n(-c2cc3ccccc3cc2C(=O)O)n1` was 0.376 µM.
`Cc1cc(C(=O)Nc2ccc(-c3ccccc3S(N)(=O)=O)cc2)n(-c2cc3ccccc3cc2O)n1`: the IC50 was greater than 11 µM.
On the same count and under the same terms, with `NS(=O)(=O)c1ccccc1-c1ccc(NC(=O)c2cc(C(F)(F)F)nn2-c2cc3ccccc3cc2F)cc1` the figure was 0.027 µM.
On the same count and under the same terms, with `Cc1cc(C(=O)Nc2ccc(-c3ccccc3S(N)(=O)=O)cc2)n(-c2ccc3cc(O)ccc3c2)n1` the figure was 3.51 µM.
Take `Cc1cc(C(=O)Nc2ccc(-c3ccccc3S(N)(=O)=O)cc2)n(-c2cc3ccccc3cc2C(=N)N)n1`: it took 0.021 µM to reach half-maximal inhibition (IC50).
Still for that read-out and setting: the value for `Cc1cc(C(=O)Nc2ccc(-c3ccccc3S(N)(=O)=O)cc2)n(-c2cc3ccccc3cc2S(C)(=O)=O)n1` was 0.045 µM.
On the same count and under the same terms, with `Cc1cc(C(=O)Nc2ccc(-c3ccccc3S(N)(=O)=O)cc2)n(-c2cc3ccccc3cc2C(N)=O)n1` the figure was 0.024 µM.
Turning to `Cc1cc(C(=O)Nc2ccc(-c3ccccc3S(N)(=O)=O)cc2)n(-c2cc3ccccc3cc2Br)n1`, the IC50 amounted to 0.143 µM.
`Cc1cc(C(=O)Nc2ccc(-c3ccccc3S(N)(=O)=O)cc2)n(-c2nc3ccc(Cl)cc3s2)n1` yielded an IC50 greater than 11 µM.

The target in another experiment is Kallikrein-1 (Homo sapiens, UniProt P06870). Nature of the experiment: Inhibitory activity against kallikrein.
Sequence of Kallikrein-1 (P06870 whole entry): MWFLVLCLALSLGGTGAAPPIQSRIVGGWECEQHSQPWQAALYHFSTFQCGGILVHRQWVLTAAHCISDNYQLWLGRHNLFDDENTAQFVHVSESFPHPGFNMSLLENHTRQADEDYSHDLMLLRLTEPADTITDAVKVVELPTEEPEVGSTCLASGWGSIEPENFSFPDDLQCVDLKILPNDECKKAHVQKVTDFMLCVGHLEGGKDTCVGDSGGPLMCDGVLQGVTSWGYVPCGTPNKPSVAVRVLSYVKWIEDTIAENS
Take `Cc1cc(C(=O)Nc2ccc(-c3ccccc3S(N)(=O)=O)cc2)n(-c2cc3ccccc3cc2C(=O)O)n1`: the IC50 was greater than 11 µM.
The same measure, in the same setting: with `Cc1cc(C(=O)Nc2ccc(-c3ccccc3S(N)(=O)=O)cc2)n(-c2cc3ccccc3cc2O)n1` the figure was greater than 11 µM; with `COc1ccc2cc(-n3nc(C)cc3C(=O)Nc3ccc(-c4ccccc4S(N)(=O)=O)cc3)ccc2c1`, greater than 11 µM.
On the same count and under the same terms, the value for `Cc1cc(C(=O)Nc2ccc(-c3ccccc3S(N)(=O)=O)cc2)n(-c2ccc3cc(O)ccc3c2)n1` was greater than 11 µM.
Same read-out and setting: the value for `Cc1cc(C(=O)Nc2ccc(-c3ccccc3S(N)(=O)=O)cc2)n(-c2cc3ccccc3cc2C(=N)N)n1` was greater than 11 µM; that for `Cc1cc(C(=O)Nc2ccc(-c3ccccc3S(N)(=O)=O)cc2)n(-c2cc3ccccc3cc2S(C)(=O)=O)n1` was greater than 11 µM.
On to `Cc1cc(C(=O)Nc2ccc(-c3ccccc3S(N)(=O)=O)cc2)n(-c2cc3ccccc3cc2C(N)=O)n1`, for which the IC50 is greater than 11 µM.
Still for that read-out and setting: the value for `Cc1cc(C(=O)Nc2ccc(-c3ccccc3S(N)(=O)=O)cc2)n(-c2cc3ccccc3cc2Br)n1` was greater than 11 µM.

The next experiment concerns the target Plasminogen (Homo sapiens, UniProt P00747). Kind of experiment: Inhibitory activity against plasmin.
The molecule `Cc1cc(C(=O)Nc2ccc(-c3ccccc3S(N)(=O)=O)cc2)n(-c2cc3ccccc3cc2C(=O)O)n1` came in with an IC50 greater than 11 µM.
On the same count and under the same terms, the value for `Cc1cc(C(=O)Nc2ccc(-c3ccccc3S(N)(=O)=O)cc2)n(-c2cc3ccccc3cc2O)n1` was greater than 11 µM; that for `COc1ccc2cc(-n3nc(C)cc3C(=O)Nc3ccc(-c4ccccc4S(N)(=O)=O)cc3)ccc2c1` was greater than 11 µM.
Still for that read-out and setting: with `Cc1cc(C(=O)Nc2ccc(-c3ccccc3S(N)(=O)=O)cc2)n(-c2ccc3cc(O)ccc3c2)n1` the figure was greater than 11 µM.
Still for that read-out and setting: the value for `Cc1cc(C(=O)Nc2ccc(-c3ccccc3S(N)(=O)=O)cc2)n(-c2cc3ccccc3cc2C(=N)N)n1` was greater than 11 µM; that for `Cc1cc(C(=O)Nc2ccc(-c3ccccc3S(N)(=O)=O)cc2)n(-c2cc3ccccc3cc2S(C)(=O)=O)n1` was greater than 11 µM.
`Cc1cc(C(=O)Nc2ccc(-c3ccccc3S(N)(=O)=O)cc2)n(-c2cc3ccccc3cc2C(N)=O)n1` registered an IC50 greater than 11 µM.
The same measure, in the same setting: the value for `Cc1cc(C(=O)Nc2ccc(-c3ccccc3S(N)(=O)=O)cc2)n(-c2cc3ccccc3cc2Br)n1` was greater than 11 µM.

Another experiment concerns the target Prothrombin (Homo sapiens, UniProt P00734). Kind of experiment: Inhibitory activity against thrombin.
For the molecule `Cc1cc(C(=O)Nc2ccc(-c3ccccc3S(N)(=O)=O)cc2)n(-c2cc3ccccc3cc2C(=O)O)n1`, the 50% inhibitory concentration (IC50) is greater than 11 µM.
Molecule `Cc1cc(C(=O)Nc2ccc(-c3ccccc3S(N)(=O)=O)cc2)n(-c2cc3ccccc3cc2O)n1` came in with an IC50 greater than 11 µM.
In the case of `COc1ccc2cc(-n3nc(C)cc3C(=O)Nc3ccc(-c4ccccc4S(N)(=O)=O)cc3)ccc2c1`, the IC50 is greater than 11 µM.
Consider `Cc1cc(C(=O)Nc2ccc(-c3ccccc3S(N)(=O)=O)cc2)n(-c2ccc3cc(O)ccc3c2)n1`, for which the IC50 was greater than 11 µM.
The same measure, in the same setting: the value for `Cc1cc(C(=O)Nc2ccc(-c3ccccc3S(N)(=O)=O)cc2)n(-c2cc3ccccc3cc2C(=N)N)n1` was greater than 11 µM.
Same read-out and setting: with `Cc1cc(C(=O)Nc2ccc(-c3ccccc3S(N)(=O)=O)cc2)n(-c2cc3ccccc3cc2S(C)(=O)=O)n1` the figure was greater than 11 µM.
Same read-out and setting: the value for `Cc1cc(C(=O)Nc2ccc(-c3ccccc3S(N)(=O)=O)cc2)n(-c2cc3ccccc3cc2C(N)=O)n1` was greater than 11 µM.
For `Cc1cc(C(=O)Nc2ccc(-c3ccccc3S(N)(=O)=O)cc2)n(-c2cc3ccccc3cc2Br)n1`, the IC50 was greater than 11 µM.

A further experiment has as its target Serine protease 1 (Homo sapiens, UniProt P07477). Kind of experiment: Inhibitory activity against trypsin.
Consider `Cc1cc(C(=O)Nc2ccc(-c3ccccc3S(N)(=O)=O)cc2)n(-c2cc3ccccc3cc2C(=O)O)n1`, for which the IC50 is greater than 11 µM.
For `Cc1cc(C(=O)Nc2ccc(-c3ccccc3S(N)(=O)=O)cc2)n(-c2cc3ccccc3cc2O)n1`, the half-maximal inhibitory concentration (IC50) is greater than 11 µM.
Molecule `COc1ccc2cc(-n3nc(C)cc3C(=O)Nc3ccc(-c4ccccc4S(N)(=O)=O)cc3)ccc2c1` displayed an IC50 greater than 11 µM.
For `Cc1cc(C(=O)Nc2ccc(-c3ccccc3S(N)(=O)=O)cc2)n(-c2ccc3cc(O)ccc3c2)n1`, the IC50 was greater than 11 µM.
`Cc1cc(C(=O)Nc2ccc(-c3ccccc3S(N)(=O)=O)cc2)n(-c2cc3ccccc3cc2C(=N)N)n1`: the IC50 is greater than 11 µM.
As for `Cc1cc(C(=O)Nc2ccc(-c3ccccc3S(N)(=O)=O)cc2)n(-c2cc3ccccc3cc2S(C)(=O)=O)n1`, the IC50 was greater than 11 µM.
On the same count and under the same terms, with `Cc1cc(C(=O)Nc2ccc(-c3ccccc3S(N)(=O)=O)cc2)n(-c2cc3ccccc3cc2C(N)=O)n1` the figure was greater than 11 µM.
On the same count and under the same terms, with `Cc1cc(C(=O)Nc2ccc(-c3ccccc3S(N)(=O)=O)cc2)n(-c2cc3ccccc3cc2Br)n1` the figure was greater than 11 µM.
